Counter-ions that a name gives are not always drawn. Like-named read-outs stand apart in the source and are kept apart here.
Assays:
dopamine release = assay: cells; assay type: cell-based; conditions: for EC50: read-out: Dopamine Release EC50; for Dopamine Release Ecmax: amount released relative to (S)-(-)-nicotine on a percentage basis
[1] = biological target: T1, muscle-type nicotinic acetylcholine receptors (Homo sapiens, UniProt P02708+P07510+Q07001); assay: cell-based
T1 construct: endogenous in cells; host or cells: TE671/RD (own knowledge of the cited US 5,597,919)

[2] = biological target: ganglionic-type nicotinic acetylcholine receptors (Rattus norvegicus, UniProt P04757+P12392); assay: cell-based; conditions: read-out: Ganglion Effect Ecmax
[3] = read-out: Dopamine Release Ecmax
[4] = maximal activation as percentage of that induced by (S)-(-)-nicotine
[5] = read-out: Dopamine Release Ecmax, amount released relative to (S)-(-)-nicotine on a percentage basis

Chain of ganglionic-type nicotinic acetylcholine receptors (P04757 26-499): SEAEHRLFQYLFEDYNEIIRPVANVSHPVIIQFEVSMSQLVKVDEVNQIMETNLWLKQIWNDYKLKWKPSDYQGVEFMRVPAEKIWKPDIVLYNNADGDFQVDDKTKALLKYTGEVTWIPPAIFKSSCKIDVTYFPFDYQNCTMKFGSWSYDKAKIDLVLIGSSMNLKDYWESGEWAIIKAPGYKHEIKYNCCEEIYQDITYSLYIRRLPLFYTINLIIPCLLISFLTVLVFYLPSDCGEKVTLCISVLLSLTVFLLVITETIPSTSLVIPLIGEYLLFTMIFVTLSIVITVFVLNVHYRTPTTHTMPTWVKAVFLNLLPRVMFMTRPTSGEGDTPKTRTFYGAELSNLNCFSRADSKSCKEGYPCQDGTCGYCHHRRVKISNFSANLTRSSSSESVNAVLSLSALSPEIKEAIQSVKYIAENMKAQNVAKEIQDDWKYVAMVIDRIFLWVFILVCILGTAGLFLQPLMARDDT
Chain of ganglionic-type nicotinic acetylcholine receptors (P12392 21-495): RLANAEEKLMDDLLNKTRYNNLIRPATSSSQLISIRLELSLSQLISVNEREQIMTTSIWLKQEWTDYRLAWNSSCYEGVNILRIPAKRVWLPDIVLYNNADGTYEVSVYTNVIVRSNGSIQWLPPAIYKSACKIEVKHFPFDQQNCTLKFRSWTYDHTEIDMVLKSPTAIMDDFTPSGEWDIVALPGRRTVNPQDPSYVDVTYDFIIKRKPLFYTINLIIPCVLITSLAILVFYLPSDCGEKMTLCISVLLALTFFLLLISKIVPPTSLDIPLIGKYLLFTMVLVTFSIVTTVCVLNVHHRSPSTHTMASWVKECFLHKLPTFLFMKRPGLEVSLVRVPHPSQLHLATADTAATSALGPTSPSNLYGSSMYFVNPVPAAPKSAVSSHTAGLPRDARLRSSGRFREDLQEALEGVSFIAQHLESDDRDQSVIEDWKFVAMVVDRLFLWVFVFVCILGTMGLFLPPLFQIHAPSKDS
T1 sequence (P02708 21-457): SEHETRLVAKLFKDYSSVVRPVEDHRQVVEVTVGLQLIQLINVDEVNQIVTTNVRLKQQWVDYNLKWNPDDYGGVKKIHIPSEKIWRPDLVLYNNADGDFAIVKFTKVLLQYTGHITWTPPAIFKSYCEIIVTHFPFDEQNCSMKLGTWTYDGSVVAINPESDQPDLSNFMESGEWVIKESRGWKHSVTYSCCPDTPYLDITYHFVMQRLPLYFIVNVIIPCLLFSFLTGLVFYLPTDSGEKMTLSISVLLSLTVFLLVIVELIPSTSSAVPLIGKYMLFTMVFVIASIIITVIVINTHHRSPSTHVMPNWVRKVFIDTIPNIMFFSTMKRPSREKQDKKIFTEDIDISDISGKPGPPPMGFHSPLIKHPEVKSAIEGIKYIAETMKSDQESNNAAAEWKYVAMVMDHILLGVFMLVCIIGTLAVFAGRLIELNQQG
T1 sequence (P11230 24-501 partner): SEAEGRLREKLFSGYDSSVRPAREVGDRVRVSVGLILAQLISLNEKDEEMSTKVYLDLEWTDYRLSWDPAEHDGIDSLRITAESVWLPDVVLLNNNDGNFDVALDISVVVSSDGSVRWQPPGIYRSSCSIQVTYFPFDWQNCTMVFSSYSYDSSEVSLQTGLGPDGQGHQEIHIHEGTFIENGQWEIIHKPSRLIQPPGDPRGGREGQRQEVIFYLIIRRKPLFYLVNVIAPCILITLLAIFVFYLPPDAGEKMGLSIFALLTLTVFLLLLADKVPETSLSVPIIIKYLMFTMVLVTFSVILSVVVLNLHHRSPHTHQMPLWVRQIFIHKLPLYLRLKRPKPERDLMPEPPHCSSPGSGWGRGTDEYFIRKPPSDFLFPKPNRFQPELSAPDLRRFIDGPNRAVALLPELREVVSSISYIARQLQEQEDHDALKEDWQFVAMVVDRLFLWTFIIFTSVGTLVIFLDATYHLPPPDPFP
T1 sequence (Q07001 22-517): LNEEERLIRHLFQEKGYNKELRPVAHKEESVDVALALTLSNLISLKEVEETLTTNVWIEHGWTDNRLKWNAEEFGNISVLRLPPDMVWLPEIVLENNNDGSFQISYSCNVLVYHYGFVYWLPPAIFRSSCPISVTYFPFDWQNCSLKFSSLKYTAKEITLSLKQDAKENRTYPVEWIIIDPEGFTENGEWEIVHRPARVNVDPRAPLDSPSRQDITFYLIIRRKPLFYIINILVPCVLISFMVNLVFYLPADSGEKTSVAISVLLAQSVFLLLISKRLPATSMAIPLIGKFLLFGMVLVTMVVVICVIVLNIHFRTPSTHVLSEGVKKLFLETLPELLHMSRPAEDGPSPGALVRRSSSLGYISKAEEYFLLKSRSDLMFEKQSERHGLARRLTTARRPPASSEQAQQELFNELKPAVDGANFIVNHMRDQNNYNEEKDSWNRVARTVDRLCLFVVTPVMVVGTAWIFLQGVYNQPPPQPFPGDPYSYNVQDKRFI
T1 sequence (P07510 23-517): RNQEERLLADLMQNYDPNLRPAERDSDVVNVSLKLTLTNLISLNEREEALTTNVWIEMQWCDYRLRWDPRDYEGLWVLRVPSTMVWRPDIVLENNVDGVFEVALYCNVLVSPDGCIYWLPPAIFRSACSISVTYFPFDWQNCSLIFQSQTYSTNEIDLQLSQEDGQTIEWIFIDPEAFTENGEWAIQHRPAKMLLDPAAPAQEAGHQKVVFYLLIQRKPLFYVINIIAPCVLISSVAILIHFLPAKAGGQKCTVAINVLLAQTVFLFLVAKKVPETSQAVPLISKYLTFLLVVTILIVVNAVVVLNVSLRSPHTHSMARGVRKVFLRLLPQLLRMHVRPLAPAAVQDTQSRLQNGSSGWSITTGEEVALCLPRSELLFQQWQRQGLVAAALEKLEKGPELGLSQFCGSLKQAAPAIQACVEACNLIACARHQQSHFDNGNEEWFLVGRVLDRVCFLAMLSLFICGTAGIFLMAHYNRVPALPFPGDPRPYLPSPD

With c1cncc(C2CC3CCN2CC3)c1 (racemic) [Sample No. 1, (+/−)-1-aza-2-(3-pyridyl)bicyclo[2.2.2]octane] the EC50 (dopamine release) was 2 nM, the Emax (dopamine release; [3]) was 40% and the “Muscle Effect Ecmax” value [1] was 110%. It also gave an Emax [2] of 85%.

Brc1cncc(C2CC3CCN2CC3)c1 (racemic) [Sample No. 2] was tested, and the “Dopamine Release Ecmax” value (dopamine release) was 43%, the EC50 (dopamine release) was 2 nM and the “Muscle Effect Ecmax” value [1, 4] was 133%. For the same compound, the Emax [2] was 106%.

Work on c1cncc([C@H]2C[C@@H]3CCN2C3)c1 (relative stereo) [Sample No. 3, exo 1-aza-2-(3-pyridyl)bicyclo[2.2.1]heptane] yielded an EC50 (dopamine release) of 6 nM, an Emax (dopamine release; [5]) of 130% and an EC50 [1] of 100 nM. For the same compound, the “Muscle Effect Ecmax” value [1, 4] was 130% and the Emax [2] was 100%.

With c1cncc([C@@H]2C[C@@H]3CCN2C3)c1 (relative stereo) [Sample No. 4, endo-1-aza-2-(3-pyridyl)bicyclo[2.2.1]heptane] the “Dopamine Release Ecmax” value (dopamine release) was 114%, the EC50 (dopamine release) was 33 nM and the “Muscle Effect Ecmax” value [1, 4] was 130%. The EC50 ([1]; read-out: Muscle Effect EC50) was 100 nM.

c1cncc(C2C3CCN2CC3)c1 (stereo not drawn) [Sample No. 5, 1-aza-7-(3-pyridyl)bicyclo[2.2.1]heptane] gave an EC50 (dopamine release) of 4 nM, an Emax (dopamine release; [5]) of 93% and an EC50 [1] of 300 nM. For the same compound, the “Muscle Effect Ecmax” value [1, 4] was 130% and the Emax [2] was 120%.

With Nc1cncc(C2CC3CCN2CC3)c1 (stereo not drawn) [Sample No. 6, 5-(1-azabicyclo[2.2.2]oct-2-yl-3-(amino)pyridinetrihydrochloride] the “Dopamine Release Ecmax” value (dopamine release) was 43%, the EC50 (dopamine release) was 7 nM and the “amounts causing muscle effects and effects upon ganglia relative to those required to cause dopamine release” value (dopamine release; selectivity of dopamine release over muscle and ganglion effects) was “many times”. For the same compound, the “Muscle Effect Ecmax” value [1, 4] was 100%, the EC50 ([1]; read-out: Muscle Effect EC50) was 3000 nM and the Emax [2, 4] was 75%.

CCOc1cncc(C2CC3CCN2CC3)c1.Cl.Cl (stereo not drawn) [Sample No. 7, 5-(1-azabicyclo[2.2.2]oct-2-yl)-3-(ethoxy)pyridine dihydrochloride] was tested, and the EC50 (dopamine release) was 5 nM, the Emax (dopamine release; [5]) was 40% and the EC50 [1] was 700 nM. For the same compound, the “Muscle Effect Ecmax” value [1, 4] was 137% and the Emax [2] was 86%.

Work on CC(C)Oc1cncc(C2CC3CCN2CC3)c1 (stereo not drawn) [Sample No. 8, 5-(1-azabicyclo[2.2.2]oct-2-yl-3-(isopropyloxy)pyridinedihydrochloride] yielded an EC50 ([1]; read-out: Muscle Effect EC50) of 3000 nM and an Emax [2] of 94%.

Compound CN1CCC[C@H]1c1cccnc1 [Sample No. C-1, (S)-(−)-nicotine, reference compound] has an EC50 (dopamine release) of 115 nM, an Emax (dopamine release; [3]) of 100% and an EC50 [1] of 60000 nM. For the same compound, the “Muscle Effect Ecmax” value [1] was 100%.

Source: patent US6525065B1, “Pharmaceutical compositions and methods for effecting dopamine release” (priority 1997, dated 2003)
